Data taken from patent US20080317857A1, “V-Atpase Inhibitors of Use in the Treatment of Septic Shock” (Brane Discovery S.r.l., priority 2005, published 2008).

Assays:
[1] = test system: murine encephalitogenic T lymphocytes in inflamed brain venules; assay: Intravital microscopy: lymphocyte recruitment in inflamed brain microcirculation; format: in vivo, mice (SJL); details: cells treated with 50 μM for 1 h
Protocol: Murine encephalitogenic T lymphocytes were labeled with either green CMFDA (5-chloromethylfluorescein diacetate; Molecular Probes) or orange CMTMR (5-(and-6)-(((4-chloromethyl)benzoyl)amino)tetramethylrhodamine) (Molecular Probes). SJL young females (Harlan-Nossan, Udine, Italy) were housed and used according to current European Community rules. In order to inflame brain endothelium, mice were injected intraperitoneally with 12 μg lipopolysaccharide (LPS) (Escherichia coli 026:B6; Sigma) 5 to 6 hours before the intravital experiment was started. […] Fluorescence-labeled cells (2×10^6)/condition were slowly injected into the carotid artery through a digital pump. Images were visualized by using a silicon-intensified target videocamera (VE-1000 SIT; Dage MTI, Michigan City, Ind.) and a Sony SSM-125CE monitor and were recorded using a digital videocassette recorder (NV-DV10000; Panasonic).
Video analysis was performed by playback of digital videotapes. Vessel diameter (D), hemodynamic parameters, and the velocities of rolling were determined by using a personal computer-based system. The velocities of 20 or more consecutive freely flowing cells per venule were calculated.
From the velocity of the fastest cell in each venule (Vfast), we calculated the mean blood flow velocities (Vm): […]. […]

PMNs = assay: Chemotaxis assay, PMNs (transwell); format: cell-based; details: Homo sapiens
Protocol: PMNs and monocytes migration was assessed using 1 or 3-μm pore size transwells (Bio-Coat Becton-Dickinson), while lymphocytes by using 5-μm pore size transwells.
Cells were in RPMI1640, containing 10% heat-inactivated Fetal Calf Serum (FCS) and 20 mM HEPES, pH 7.3, at 2×10^6/ml. 100 μl of cell suspension were added to the top well, and 600 μl of medium, containing chemoaftractants and test compound, were added to the bottom well. Migration was evaluated after 2 h for PMNs and monocytes and after 4 h for lymphocytes. fMLP 10 nM (PMNs and monocytes) and MIP-3β 100 nM (lymphocytes) were utilized as chemoattractants. After fixation with 1.5% glutaraldehyde, migrated cells were counted by fluorescence-activated cell sorting using polystyrene beads (Polyscience) as an internal standard (Campbell J. J. et al. J. Cell. Biol. 134, 255-266, 1996; Laudanna C. et al. J. Biol. Chem. 273, 46, 30306-30315, 1998).
Results are expressed as percentage of inhibition over control (=100%), and are the mean of three experiments.

SMILES: COC(=O)c1[nH]c2cc(OC)c(OC)cc2c1-c1ccc(OC)cc1 [Example 1]
- autoreactive lymphocyte rolling [1]: no effect
- sticking/firm arrest [1]: highly blocked
- inhibition at 2.5 µM (PMNs; [cpd] 2.5 μM, read-out: Inhibition of Chemotaxis (%) PMNs (fMLP)): 14.6%
- inhibition at 5 µM (PMNs; [cpd] 5 μM, read-out: Inhibition of Chemotaxis (%) PMNs (fMLP) (converted)): 28.2%
- inhibition at 10 µM (PMNs; [cpd] 10 μM, read-out: Inhibition of Chemotaxis (%) PMNs (fMLP) (converted)): 34%
- inhibition at 25 µM (PMNs; [cpd] 25 μM, read-out: Inhibition of Chemotaxis (%) PMNs (fMLP) (converted)): 40.6%
- inhibition at 50 µM (PMNs; [cpd] 50 μM, read-out: Inhibition of Chemotaxis (%) PMNs (fMLP)): 46.4%
- inhibition at 100 µM (PMNs; [cpd] 100 μM, read-out: Inhibition of Chemotaxis (%) PMNs (fMLP) (converted)): 62.6%
